6 compounds from BindingDB's records for doi:10.1021/acs.jmedchem.6b00594 (Duquesne University, 2016) can be followed below.

Assay [1] can be described thus: Inhibition of human RFC expressed in Chinese hamster PC43-10 cells assessed as antiproliferative activity measured as reduction in cell viability after 96 hrs by Cell-Titer Blue fluorescence analysis.
Assay [2] can be described thus: Inhibition of human PCFT expressed in Chinese hamster R2/PCFT4 cells assessed as antiproliferative activity measured as reduction in cell viability after 96 hrs by Cell-Titer Blue fluorescence analysis.
The nature of assay [3]: Inhibition of human FR-beta receptor expressed in Chinese hamster D4 cells assessed as antiproliferative activity measured as reduction in cell viability after 96 hrs by Cell-Titer Blue fluorescence analysis.
The nature of assay [4]: Inhibition of human FR-alpha receptor expressed in Chinese hamster RT16 cells assessed as antiproliferative activity measured as reduction in cell viability after 96 hrs by Cell-Titer Blue fluorescence analysis.

On to `Nc1nc2[nH]c(CCOc3ccc(C(=O)N[C@@H](CCC(=O)O)C(=O)O)cc3)cc2c(=O)[nH]1`, for which the half-maximal inhibitory concentration (IC50) in assay [1] was determined as 641 nM; in assay [2] it was 58 nM; in assay [3], 2.6 nM; in assay [4], 1.9 nM.
Regarding `CC(=O)N(CCc1cc2c(=O)[nH]c(N)nc2[nH]1)c1ccc(C(=O)N[C@@H](CCC(=O)O)C(=O)O)cc1`, the concentration for half-maximal inhibition (IC50) in assay [1] was found to be 808 nM; in assay [2] it was 82 nM; in assay [3] it was 1.6 nM; in assay [4] it was 4.9 nM.
Take `Nc1nc2[nH]c(CCSc3ccc(C(=O)N[C@@H](CCC(=O)O)C(=O)O)cc3)cc2c(=O)[nH]1`: the IC50 in assay [1] is > 1000 nM; in assay [2], 267 nM; in assay [3], 0.34 nM; in assay [4] it was 0.51 nM.
Regarding `Nc1nc2[nH]c(CCN(C(=O)C(F)(F)F)c3ccc(C(=O)N[C@@H](CCC(=O)O)C(=O)O)cc3)cc2c(=O)[nH]1`, the concentration for half-maximal inhibition (IC50) came to 783 nM in assay [1], 109 nM in assay [2], 0.45 nM in assay [3] and 1.1 nM in assay [4].
As for `Nc1nc2[nH]c(CCN(C=O)c3ccc(C(=O)N[C@@H](CCC(=O)O)C(=O)O)cc3)cc2c(=O)[nH]1`, the 50% inhibitory concentration (IC50) in assay [1] came out at 642 nM; in assay [2] it was 89 nM; in assay [3] it was 0.53 nM; in assay [4], 3 nM.
On to `Nc1nc2[nH]c(CCNc3ccc(C(=O)N[C@@H](CCC(=O)O)C(=O)O)cc3)cc2c(=O)[nH]1`, for which the IC50 in assay [1] was found to be 510 nM; in assay [2], 87 nM; in assay [3], 0.62 nM; in assay [4] it was 3 nM.

A word on the IC50: it is the midpoint of a concentration-inhibition curve.
